Source: patent US20260337156A1, “SOLUBILIZING COMPOUNDS” (Vivesto AB, priority 2022, published 2026)
One block for each compound: values may come before it.

Assay: particle size and polydispersity index of drug micelles over time (ZetaSizer)
Assay type: physicochemical
Conditions: for change of particle size and polydispersity index over time: 0-24 h
Method: Micellar size was measured using a ZetaSizer from Malvern Panalytical.
(§1) A stock solution of docetaxel in methanol was mixed with a stock solution of compound 1 in a round bottom flask. The mixture was evaporated to dryness in a rotary evaporator. Final drying was performed in a desiccator to remove residual solvent. Hydration of the dried film was performed by adding water for injection (1.0 mL) to a concentration of 1 mg/mL of docetaxel. The resulting solution was filtered through a 0.22 μm sterile filter and further diluted with 0.9% sodium chloride solution to 0.5 mg/mL of docetaxel. […]
(§2) A stock solution of cyclosporin in methanol was mixed with a stock solution of compound 1 in a round bottom flask. The mixture was evaporated to dryness in a rotary evaporator. Final drying was performed in a desiccator to remove residual solvent. Hydration of the dried film was performed by adding water for injection (1.0 mL) to a concentration of 1 mg/mL of cyclosporin. The resulting solution was filtered through a 0.22 μm sterile filter and further diluted with 0.9% sodium chloride solution to 0.5 mg/mL of cyclosporin. The final weight ratio of cyclosporin to micelle forming agent was 1:3.
(§3) A stock solution of docetaxel in methanol was mixed with a stock solution of compound 3 in a round bottom flask. The mixture was evaporated to dryness in a rotary evaporator. Final drying was performed in a desiccator to remove residual solvent. Hydration of the dried film was performed by adding water for injection (1.0 mL) to a concentration of 1 mg/mL of docetaxel. The resulting solution was filtered through a 0.22 μm sterile filter and further diluted with 0.9% sodium chloride solution to 0.5 mg/mL of Docetaxel. The final weight ratio of docetaxel to micelle forming agent was 1:3.
as §2, with “compound 3” for “compound 1”
as §1, with “compound 4” for “compound 1”
as §3, with “compound 5” for “compound 3”, “of docetaxel.” for “of Docetaxel.”
A stock solution of cabazitaxel in methanol was mixed with a stock solution of compound 5 in a round bottom flask. The mixture was evaporated to dryness in a rotary evaporator. Final drying was performed in a desiccator to remove residual solvent. Hydration of the dried film was performed by adding water for injection (1.0 mL) to a concentration of 1 mg/mL of cabazitaxel. […]

[1] = cabazitaxel:compound 1:3, cabazitaxel 0.5 mg/mL, time 0 h
[2] = cabazitaxel:compound 1:3, cabazitaxel 0.5 mg/mL, time 1 h
[3] = cabazitaxel:compound 1:3, cabazitaxel 0.5 mg/mL, time 2 h
[4] = cabazitaxel:compound 1:3, cabazitaxel 0.5 mg/mL, time 4 h
[5] = cabazitaxel:compound 1:3, cabazitaxel 0.5 mg/mL, time 6 h
[6] = cabazitaxel:compound 1:3, cabazitaxel 0.5 mg/mL, time 24 h
[7] = docetaxel:compound 1:3, docetaxel 0.5 mg/mL
[8] = docetaxel:compound 1:3, docetaxel 0.5 mg/mL, time 0 h
[9] = docetaxel:compound 1:3, docetaxel 0.5 mg/mL, time 1 h
[10] = docetaxel:compound 1:3, docetaxel 0.5 mg/mL, time 2 h
[11] = docetaxel:compound 1:3, docetaxel 0.5 mg/mL, time 4 h
[12] = docetaxel:compound 1:3, docetaxel 0.5 mg/mL, time 6 h
[13] = docetaxel:compound 1:3, docetaxel 0.5 mg/mL, time 24 h
[14] = docetaxel:compound 1:5, docetaxel 0.5 mg/mL, time 0 h
[15] = docetaxel:compound 1:5, docetaxel 0.5 mg/mL, time 1 h
[16] = docetaxel:compound 1:5, docetaxel 0.5 mg/mL, time 2 h
[17] = docetaxel:compound 1:5, docetaxel 0.5 mg/mL, time 4 h
[18] = docetaxel:compound 1:5, docetaxel 0.5 mg/mL, time 6 h
[19] = docetaxel:compound 1:5, docetaxel 0.5 mg/mL, time 24 h

Structure (SMILES): COc1cc(C)c(/C=C/C(C)=C/C=C/C(C)=C/C(=O)N(CCS(=O)(=O)[O-])CC(N)=O)c(C)c1C.[Na+] [Compound 5]
- change of particle size and polydispersity index over time (cabazitaxel:compound 1:3, cabazitaxel 0.5 mg/mL): Small variations in the particle size and the polydispersity index over time were noted
- Particle size [1]: 93.83 nm
- Polydispersity index [1]: 0.19
- Particle size [2]: 98.08 nm
- Polydispersity index [2]: 0.20
- Particle size [3]: 102.2 nm
- Polydispersity index [3]: 0.21
- Particle size [4]: 106.6 nm
- Polydispersity index [4]: 0.20
- Particle size [5]: 108.8 nm
- Polydispersity index [5]: 0.21
- Particle size [6]: 83.42 nm
- Polydispersity index [6]: 0.39
- change of particle size and polydispersity index over time [7]: An increase in the particle size and very small variations of the polydispersity index over time were noted
- Particle size [8]: 59.40 nm
- Polydispersity index [8]: 0.17
- Particle size [9]: 66.24 nm
- Polydispersity index [9]: 0.16
- Particle size [10]: 75.40 nm
- Polydispersity index [10]: 0.14
- Particle size [11]: 82.19 nm
- Polydispersity index [11]: 0.13
- Particle size [12]: 87.95 nm
- Polydispersity index [12]: 0.13
- Particle size [13]: 105.7 nm
- Polydispersity index [13]: 0.14

Structure (SMILES): COc1cc(C)c(/C=C/C(C)=C/C=C/C(C)=C/C(=O)N(C)[C@H]2CC[C@H](CS(=O)(=O)[O-])CC2)c(C)c1C.[Na+] [Compound 7]
- change of particle size and polydispersity index over time [7]: Small variations in the particle size and the polydispersity index over time were noted
- Particle size [8]: 100.8 nm
- Polydispersity index [8]: 0.23
- Particle size [9]: 97.60 nm
- Polydispersity index [9]: 0.24
- Particle size [10]: 97.60 nm
- Polydispersity index [10]: 0.24
- Particle size [11]: 96.90 nm
- Polydispersity index [11]: 0.25
- Particle size [12]: 99.12 nm
- Polydispersity index [12]: 0.25
- Particle size [13]: 96.76 nm
- Polydispersity index [13]: 0.26

Structure (SMILES): COc1cc(C)c(/C=C/C(C)=C/C=C/C(C)=C/C(=O)N(CCO)Cc2ccc(N)cc2S(=O)(=O)[O-])c(C)c1C.[Na+] [Compound 10]
- change of particle size and polydispersity index over time (docetaxel:compound 1:5, docetaxel 0.5 mg/mL): Increase in the particle size and minor decrease the polydispersity index over time were noted
- Particle size [14]: 52.29 nm
- Polydispersity index [14]: 0.16
- Particle size [15]: 62.51 nm
- Polydispersity index [15]: 0.13
- Particle size [16]: 70.07 nm
- Polydispersity index [16]: 0.12
- Particle size [17]: 78.98 nm
- Polydispersity index [17]: 0.12
- Particle size [18]: 85.10 nm
- Polydispersity index [18]: 0.10
- Particle size [19]: 107.4 nm
- Polydispersity index [19]: 0.10

Second part, led by results:

- Particle size [8]: 61.37 nm
- Polydispersity index [8]: 0.22
- Particle size [9]: 61.27 nm
- Polydispersity index [9]: 0.28
- Particle size [10]: 64.21 nm
- Polydispersity index [10]: 0.28
- Particle size [11]: 67.34 nm
- Polydispersity index [11]: 0.28
- Particle size [12]: 69.84 nm
- Polydispersity index [12]: 0.28
- Particle size [13]: 66.18 nm
- Polydispersity index [13]: 0.38
Structure (SMILES): COc1cc(C)c(/C=C/C(C)=C/C=C/C(C)=C/C(=O)N2CCN(c3ccc(S(=O)(=O)[O-])cc3)CC2)c(C)c1C.[Na+] [Compound 6]
- change of particle size and polydispersity index over time [7]: Small variations in the particle size and the polydispersity index over time were noted

- Particle size [8]: 55.38 nm
- Polydispersity index [8]: 0.20
- Particle size [9]: 70.34 nm
- Polydispersity index [9]: 0.15
- Particle size [10]: 75.90 nm
- Polydispersity index [10]: 0.13
- Particle size [11]: 83.10 nm
- Polydispersity index [11]: 0.11
- Particle size [12]: 87.94 nm
- Polydispersity index [12]: 0.12
- Particle size [13]: 105.0 nm
- Polydispersity index [13]: 0.16
Structure (SMILES): COc1cc(C)c(/C=C/C(C)=C/C=C/C(C)=C/C(=O)N2CCC(CCS(=O)(=O)[O-])CC2)c(C)c1C.[Na+] [Compound 8]
- change of particle size and polydispersity index over time [7]: Increase in the particle size and small variations the polydispersity index over time were noted

- Particle size [8]: 89.91 nm
- Polydispersity index [8]: 0.20
- Particle size [9]: 97.93 nm
- Polydispersity index [9]: 0.20
- Particle size [10]: 103.8 nm
- Polydispersity index [10]: 0.20
- Particle size [11]: 113.0 nm
- Polydispersity index [11]: 0.17
- Particle size [12]: 118.6 nm
- Polydispersity index [12]: 0.17
- Particle size [13]: 122.0 nm
- Polydispersity index [13]: 0.22
Structure (SMILES): COc1cc(C)c(/C=C/C(C)=C/C=C/C(C)=C/C(=O)N2CCN(C(=O)c3ccc(S(=O)(=O)[O-])cc3)CC2)c(C)c1C.[K+] [Compound 9]
- change of particle size and polydispersity index over time [7]: Increase in the particle size and small variations the polydispersity index over time were noted
